Data from patent publication US20250090524A1, “BTK INHIBITORS” (BIOGEN MA INC., priority 2021, published 2025).

Tests used:
BTK = biological target: T1, BTK (Homo sapiens, UniProt Q06187); assay: In Vitro BTK Kinase Assay: Btk-PolyGAT-LS Assay; type: biochemical; conditions: active BTK enzyme 0.25 nM, fluorescein-labeled polyGAT peptide 100 nM, 30 minutes incubation, TRF readout; read-out: In Vitro BTK Kinase Assay IC50 Score
T1 construct: purchased Upstate 14-552
Procedure: The purpose of the BTK in vitro assay is to determine compound potency against BTK through the measurement of IC50. Compound inhibition is measured after monitoring the amount of phosphorylation of a fluorescein-labeled polyGAT peptide (Invitrogen PV3611) in the presence of active BTK enzyme (Upstate 14-552), ATP, and inhibitor. The BTK kinase reaction was done in a black 96 well plate (costar 3694). For a typical assay, a 24 μL aliquot of a ATP/peptide master mix (final concentration; ATP […], polyGAT 100 nM) in kinase buffer (10 mM Tris-HCl pH 7.5, 10 mM MgCl2, 200 μM […], 5 mM DTT, 0.01% Triton X-100, and 0.2 mg/ml casein) is added to each well. Next, I uL of a 4-fold, 40× compound titration in 100% DMSO solvent is added, followed by adding […] of BTK enzyme mix in 1× kinase buffer (with a final concentration of 0.25 nM). The assay is incubated for 30 minutes before being stopped with […] of a 50 mM EDTA solution. Aliquots (5 uL) of the kinase reaction are transferred to a low volume white 384 well plate (Corning 3674), and […] of a 2× detection buffer (Invitrogen PV3574, with 4 nM Tb-PY20 antibody, Invitrogen PV3552) is added. The plate is covered and incubated for 45 minutes at room temperature. Time resolved fluorescence (TRF) on Molecular Devices M5 (332 nm excitation; 488 nm emission; 518 nm fluorescein emission) is measured. IC50 values are calculated using a four parameter fit with 100% enzyme activity determined from the DMSO control and 0% activity from the EDTA control.
“†” represents an IC50 of greater than 1 μM and equal to or less than 10 μM. “††” represents an IC50 of greater than 10 nM and equal to or less than 1 μM (10 nM<IC50≤1 μM). “†††” represents an IC50 of greater than 1 nM and equal to or less than 10 nM (1 nM<IC50≤10 nM). “††††” represents an IC50 of less than 1 nM.

[1] = test system: CD69 expression on CD19+ B cells in human whole blood; assay: In Vitro Whole Blood CD69 Assay; type: cell-based; conditions: B-cell; human heparinized whole blood, anti-human IgD stimulation, overnight (18 to 22 hours), percentage of CD19+ B cells expressing CD69, flow cytometry; read-out: In Vitro HWB CD69 Assay IC50 Score
Procedure: Human heparinized venous blood from health donors was aliquoted into 96-well plate and “spiked” with serial dilutions of formula I compounds in DMSO or with DMSO without drug. The final concentration of DMSO in all wells was 0.1%. The plate was incubated at 37° C. for 30 min. Drug-containing samples were stimulated with […] mouse anti-human IgD-dextran (1A62) or 20 μg/mL polyclonal rabbit F(ab′)2 anti-human IgD.
Phosphate-buffered saline (PBS) was added to the negative control unstimulated sample and the plates were incubated overnight (18 to 22 hours) at 37° C. Cells were stained with fluorochrome-conjugated anti-CD19 and anti-CD69 antibodies. Lyse/fix solution was used to remove red blood cells by hypotonic lysis and to fix the remaining cells, which were then analyzed by flow cytometry. CD19+B cells were gated and analyzed for CD69 expression.
The percentage of B cells expressing CD69 was plotted versus the log 10 of the concentration of the drug and the best-fit curves (variable Hill slope) were generated to obtain the IC50 value.
“†” represents an IC50 of greater than 10 μM. “††” represents an IC50 of greater than 1 μM and equal to or less than 10 μM (1 μM<IC50≤10 μM). “†††” represents an IC50 of less than 1 μM.

T1 sequence (Q06187 whole entry): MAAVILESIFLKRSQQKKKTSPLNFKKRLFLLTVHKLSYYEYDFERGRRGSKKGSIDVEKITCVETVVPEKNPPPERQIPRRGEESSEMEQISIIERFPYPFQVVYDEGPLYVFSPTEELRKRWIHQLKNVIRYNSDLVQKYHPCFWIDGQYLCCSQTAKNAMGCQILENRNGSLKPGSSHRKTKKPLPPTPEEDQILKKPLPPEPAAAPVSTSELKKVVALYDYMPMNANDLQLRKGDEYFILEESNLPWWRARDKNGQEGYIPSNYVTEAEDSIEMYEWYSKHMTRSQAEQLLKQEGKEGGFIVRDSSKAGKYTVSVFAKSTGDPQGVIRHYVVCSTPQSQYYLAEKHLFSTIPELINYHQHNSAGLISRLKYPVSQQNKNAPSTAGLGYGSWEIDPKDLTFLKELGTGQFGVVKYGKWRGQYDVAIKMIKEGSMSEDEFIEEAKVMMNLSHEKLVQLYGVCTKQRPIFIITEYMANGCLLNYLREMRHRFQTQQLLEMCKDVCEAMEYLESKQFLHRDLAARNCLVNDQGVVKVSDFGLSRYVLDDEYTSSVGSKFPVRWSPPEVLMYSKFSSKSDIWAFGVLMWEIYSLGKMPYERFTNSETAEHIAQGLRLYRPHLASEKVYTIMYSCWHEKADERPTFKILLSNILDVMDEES

| SMILES | IC50 (BTK) | IC50 [1] |
| --- | --- | --- |
| C=CC(=O)N(C)[C@H]1CC[C@H](C(=O)c2nc(-c3cnn(C)c3)cn3nccc23)C1 (relative stereo) [Example 18, N-methyl-N-(3-(6-(1-methyl-1H-pyrazol-4-yl)pyrazolo[1,5-a]pyrazine-4-carbonyl)cyclopentyl)acrylamide] | 1000 to 10000 nM | 1000 to 10000 nM |
| C=CC(=O)N1C[C@H]2C[C@@H](c3nc(-c4cnn(C)c4)cn4nccc34)C[C@H]2C1 (single isomer, unassigned) [Example 1] | < 1 nM | < 1000 nM |
| C=CC(=O)N(C)C1CCC(C(=O)c2nc(-c3cnn(C)c3)cn3nccc23)C1 (single isomer, unassigned) [Example 16, N-methyl-N-(3-(6-(1-methyl-1H-pyrazol-4-yl)pyrazolo[1,5-a]pyrazine-4-carbonyl)cyclopentyl)acrylamide] | 1 to 10 nM | 1000 to 10000 nM |
| C=CC(=O)N(C)[C@@H]1CCC[C@@H](c2nc(-c3cnn(C)c3)cn3nccc23)C1 (single isomer, unassigned) [Example 24, trans-N-methyl-N-(3-(6-(1-methyl-1H-pyrazol-4-yl)pyrazolo[1,5-a]pyrazin-4-yl)cyclohexyl)acrylamide] | 10 to 1000 nM | 1000 to 10000 nM |
| C=CC(=O)N(C)[C@H]1CCC[C@H](c2nc(-c3cnn(C)c3)cn3nccc23)C1 (single isomer, unassigned) [Example 25, trans-N-methyl-N-(3-(6-(1-methyl-1H-pyrazol-4-yl)pyrazolo[1,5-a]pyrazin-4-yl)cyclohexyl)acrylamide] | 10 to 1000 nM | 1000 to 10000 nM |
| C=CC(=O)N(C)[C@H]1CCC[C@@H](c2nc(-c3cnn(C)c3)cn3nccc23)C1 (single isomer, unassigned) [Example 26, cis-N-methyl-N-(3-(6-(1-methyl-1H-pyrazol-4-yl)pyrazolo[1,5-a]pyrazin-4-yl)cyclohexyl)acrylamide] | 1 to 10 nM | 1000 to 10000 nM |
| C=CC(=O)N(C)[C@@H]1CCC[C@H](c2nc(-c3cnn(C)c3)cn3nccc23)C1 (single isomer, unassigned) [Example 27, cis-N-methyl-N-(3-(6-(1-methyl-1H-pyrazol-4-yl)pyrazolo[1,5-a]pyrazin-4-yl)cyclohexyl)acrylamide] | 10 to 1000 nM | 1000 to 10000 nM |
| C=CC(=O)N1CCC[C@@H](Sc2nc(-c3cnn(C)c3)cn3nccc23)CC1 (single isomer, unassigned) [Example 30] | 10 to 1000 nM | – |
| C=CC(=O)N1CCC[C@H](Sc2nc(-c3cnn(C)c3)cn3nccc23)CC1 (single isomer, unassigned) [Example 31] | 1000 to 10000 nM | – |
| C=CC(=O)N(C)[C@H]1CC[C@@H](C(=O)c2nc(-c3cnn(C)c3)cn3nccc23)C1 (stereo in doubt) [Example 17, N-methyl-N-(3-(6-(1-methyl-1H-pyrazol-4-yl)pyrazolo[1,5-a]pyrazine-4-carbonyl)cyclopentyl)acrylamide] | 10 to 1000 nM | – |
| C=CC(=O)N(C)[C@@H]1CC[C@H](C(=O)c2nc(-c3cnn(C)c3)cn3nccc23)C1 (stereo in doubt) [Example 19, N-methyl-N-(3-(6-(1-methyl-1H-pyrazol-4-yl)pyrazolo[1,5-a]pyrazine-4-carbonyl)cyclopentyl)acrylamide] | 1000 to 10000 nM | < 1000 nM |
| C=CC(=O)N(C)C[C@H]1CC[C@H](c2nc(-c3cnn(C)c3)cn3nccc23)C1 (stereo in doubt) [Example 20, N-methyl-N-((3-(6-(1-methyl-1H-pyrazol-4-yl)pyrazolo[1,5-a]pyrazin-4-yl)cyclopentyl)methyl)acrylamide] | 10 to 1000 nM | – |
| C=CC(=O)N(C)C[C@H]1CC[C@@H](c2nc(-c3cnn(C)c3)cn3nccc23)C1 (stereo in doubt) [Example 21, N-methyl-N-((3-(6-(1-methyl-1H-pyrazol-4-yl)pyrazolo[1,5-a]pyrazin-4-yl)cyclopentyl)methyl)acrylamide] | 1 to 10 nM | – |
| C=CC(=O)N(C)C[C@@H]1CC[C@H](c2nc(-c3cnn(C)c3)cn3nccc23)C1 (stereo in doubt) [Example 22, N-methyl-N-((3-(6-(1-methyl-1H-pyrazol-4-yl)pyrazolo[1,5-a]pyrazin-4-yl)cyclopentyl)methyl)acrylamide] | 10 to 1000 nM | – |
| C=CC(=O)N(C)C[C@@H]1CC[C@@H](c2nc(-c3cnn(C)c3)cn3nccc23)C1 (stereo in doubt) [Example 23, N-methyl-N-((3-(6-(1-methyl-1H-pyrazol-4-yl)pyrazolo[1,5-a]pyrazin-4-yl)cyclopentyl)methyl)acrylamide] | 10 to 1000 nM | – |
| C=CC(=O)N1C[C@H]2C[C@H](c3nc(-c4cnn(C)c4)cn4nccc34)C[C@H]2C1 [Example 2, 1-[(3aS,6aR)-5-[6-(1-methylpyrazol-4-yl)pyrazolo[1,5-a]pyrazin-4-yl]-3,3a,4,5,6,6a-hexahydro-1H-cyclopenta[c]pyrrol-2-yl]prop-2-en-1-one] | 1 to 10 nM | 1000 to 10000 nM |
| C=CC(=O)N1CC2CC(c3cc(-c4cnn(C)c4)cn4nccc34)CC2C1 (stereo not shown) [Example 3, 1-[5-[6-(1-methylpyrazol-4-yl)pyrazolo[1,5-a]pyridin-4-yl]-3,3a,4,5,6,6a-hexahydro-1H-cyclopenta[c]pyrrol-2-yl]prop-2-en-1-one] | < 1 nM | < 1000 nM |
| C=CC(=O)N1CCC(c2nc(-c3cnn(C)c3)cn3nccc23)CC1 [Example 4, 1-[4-[6-(1-methylpyrazol-4-yl)pyrazolo[1,5-a]pyrazin-4-yl]-1-piperidyl]prop-2-en-1-one] | 1 to 10 nM | 1000 to 10000 nM |
| C=CC(=O)N1CCCC(c2nc(-c3cnn(C)c3)cn3nccc23)C1 (stereo not shown) [Example 5, 1-[3-[6-(1-methylpyrazol-4-yl)pyrazolo[1,5-a]pyrazin-4-yl]-1-piperidyl]prop-2-en-1-one] | 10 to 1000 nM | – |
| C=CC(=O)N1CCCC(c2nc(-c3cnn(C)c3)cn3nccc23)CC1 (stereo not shown) [Example 6, 1-[4-[6-(1-methylpyrazol-4-yl)pyrazolo[1,5-a]pyrazin-4-yl]azepan-1-yl]prop-2-en-1-one] | 10 to 1000 nM | 1000 to 10000 nM |
| C=CC(=O)N1CCC(c2nc(-c3cnn(C)c3)cn3ncc(F)c23)CC1 [Example 7, 1-[4-[3-fluoro-6-(1-methylpyrazol-4-yl)pyrazolo[1,5-a]pyrazin-4-yl]-1-piperidyl]prop-2-en-1-one] | 1 to 10 nM | < 1000 nM |
| C=CC(=O)N1CCC(c2cc(-c3cnn(C)c3)cn3nccc23)CC1 [Example 8, 1-[4-[6-(1-methylpyrazol-4-yl)pyrazolo[1,5-a]pyridin-4-yl]-1-piperidyl]prop-2-en-1-one] | 1 to 10 nM | 1000 to 10000 nM |
| C=CC(=O)N1CCC(c2nc(-c3cnn(C)c3)cn3ncc(C)c23)CC1 [Example 9, 1-[4-[3-methyl-6-(1-methylpyrazol-4-yl)pyrazolo[1,5-a]pyrazin-4-yl]-1-piperidyl]prop-2-en-1-one] | 1 to 10 nM | 1000 to 10000 nM |
| C=CC(=O)N1CC=C(c2nc(-c3cnn(C)c3)cn3ncc(C)c23)CC1 [Example 10, 1-[4-[3-methyl-6-(1-methylpyrazol-4-yl)pyrazolo[1,5-a]pyrazin-4-yl]-3,6-dihydro-2H-pyridin-1-yl]prop-2-en-1-one] | 10 to 1000 nM | – |
| C=CC(=O)N1CCC(c2nc(-c3cnn(C)c3)cn3nccc23)CC1C (stereo not shown) [Example 12, 1-[2-methyl-4-[6-(1-methylpyrazol-4-yl)pyrazolo[1,5-a]pyrazin-4-yl]-1-piperidyl]prop-2-en-1-one] | 10 to 1000 nM | – |
